According to ChEMBL document CHEMBL1130717, “Tricyclic ureas: a new class of HIV-1 protease inhibitors” (Bioorg Med Chem Lett, 1998):

Target: Human immunodeficiency virus type 1 protease (Human immunodeficiency virus 1, UniProt Q72874)
Assay: Compound was tested for the inhibition of HIV-1 protease by assaying the cleavage of a fluorescent peptide using HPLC

Row | SMILES | Ki
1 | O=C1N[C@H](Cc2ccccc2)[C@@H](O)[C@H](O)[C@]23CC[C@H](CC2)N13 | 21000 nM
2 | O=C1N(Cc2ccccc2)[C@H](Cc2ccccc2)[C@@H](O)[C@H](O)[C@]23CC[C@H](CC2)N13 | 6300 nM
3 | O=C1N(Cc2ccccc2)[C@H](Cc2ccccc2)[C@H](O)[C@H](O)[C@]23CC[C@H]([C@H](OCc4ccccc4)C2)N13 | 750 nM
4 | O=C1N(Cc2ccc3[nH]ncc3c2)[C@H](Cc2ccccc2)[C@H](O)[C@H](O)[C@]23CC[C@H](CC2)N13 | 2300 nM
5 | O=C1N(Cc2ccccc2)[C@H](Cc2ccccc2)[C@H](O)[C@H](O)[C@]23CC[C@H](CC2)N13 | 2400 nM
6 | O=C1N(Cc2ccc3[nH]ncc3c2)[C@H](Cc2ccccc2)[C@H](O)[C@H](O)[C@]23CC[C@H]([C@H](OCc4ccccc4)C2)N13 | 9 nM
